In patent US20050159431A1, “Substituted alkyl uracils and thereof” (Bayer Healthcare AG, priority 2002, published 2005) one finds IC50 and EC50 data, which are given here for 13 molecules.

T1 sequence (P09874 whole entry): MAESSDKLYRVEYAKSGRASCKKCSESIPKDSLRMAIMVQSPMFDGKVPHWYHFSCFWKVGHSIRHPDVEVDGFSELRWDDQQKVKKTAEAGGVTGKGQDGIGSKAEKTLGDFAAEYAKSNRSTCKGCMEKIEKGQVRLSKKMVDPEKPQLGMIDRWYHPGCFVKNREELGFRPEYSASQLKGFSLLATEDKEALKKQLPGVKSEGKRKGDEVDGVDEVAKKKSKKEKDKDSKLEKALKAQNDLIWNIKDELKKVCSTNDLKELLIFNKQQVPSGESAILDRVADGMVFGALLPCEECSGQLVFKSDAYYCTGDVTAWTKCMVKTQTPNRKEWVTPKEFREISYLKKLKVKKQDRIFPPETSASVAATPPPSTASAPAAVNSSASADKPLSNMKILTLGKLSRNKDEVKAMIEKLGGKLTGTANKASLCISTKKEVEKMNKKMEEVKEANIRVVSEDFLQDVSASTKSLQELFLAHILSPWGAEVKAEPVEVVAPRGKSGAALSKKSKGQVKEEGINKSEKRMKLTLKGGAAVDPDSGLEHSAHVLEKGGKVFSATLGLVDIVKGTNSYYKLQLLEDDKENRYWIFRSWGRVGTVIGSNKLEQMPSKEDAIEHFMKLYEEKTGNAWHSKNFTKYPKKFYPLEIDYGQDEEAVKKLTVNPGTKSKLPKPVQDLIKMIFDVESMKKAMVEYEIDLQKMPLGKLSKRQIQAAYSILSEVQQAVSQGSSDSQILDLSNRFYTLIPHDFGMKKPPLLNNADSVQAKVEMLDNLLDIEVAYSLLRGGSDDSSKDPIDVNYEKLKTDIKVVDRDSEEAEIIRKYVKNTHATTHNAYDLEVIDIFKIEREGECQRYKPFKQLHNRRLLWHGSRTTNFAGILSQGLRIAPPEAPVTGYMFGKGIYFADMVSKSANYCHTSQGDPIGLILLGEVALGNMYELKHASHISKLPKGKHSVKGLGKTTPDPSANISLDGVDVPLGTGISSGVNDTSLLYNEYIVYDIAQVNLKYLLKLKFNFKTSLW

One assay has as its target T1, human PARS enzyme (Homo sapiens, UniProt P09874).
T1 construct: made in house; host or cells: baculovirus expression system (Bac-To-Bac, Life Technologies)
Briefly: PARS inhibition test (in vitro). Conditions: recombinant human PARS, [14C]-NAD+, 10 min room temperature. The format is biochemical. As to the method: The activity of substances as PARS inhibitors is tested in accordance with the method of Ushiro [Ushiro et al., J. Biol. Chem., 262, 2352-2357 (1987)]. To this end, recombinantly expressed (Bac-To-Bac, Baculo virus expression system; Instruction Manual; Life Technologies) human PARS enzyme is activated in a buffer which contains radioactively labeled [^14C]-NAD^+. The poly(ADP-ribose) units that are synthesized are precipitated using trichloroacetic acid, and the proportion of labeled protein is determined by scintillation measurements. Incubation of PARS with inhibitors leads to a decrease in the proportion of labeled protein and thus to a reduced radioactivity.
Inhibition of the PARS activity can be represented as a percentage of PARS inhibition in incubation with different substances or as the concentration at which 50% of the enzyme is inhibited, i.e. as IC50 value.
The compounds to be tested are dissolved in DMSO (dimethyl sulfoxide) at a concentration of 10 mM. The assay is carried out in deep 96-well plates. Per well, 70 μl of buffer, 10 μl of DNA, 10 μl of histones, 10 μl of NAD^+/[^14C]-NAD^+ mix and 0.5-5 μl of PARS (about 10,000 cpm/test) are combined with 1 μl of the compounds (final concentration 0.001-10 μM), to give a total volume of about 110 μl. The mixture is incubated at room temperature for 10 min, and 1 ml of ice-cold TCA solution is then added, and the precipitated labeled proteins are sucked onto a filter paper (printed filter mat A; from Wallac) using a harvester (from Scatron). The filter is dried, sealed together with a scintillation sheet (Multilex A; from Wallac) and measured in a p counter for 1 min per well.
In addition to the substances described in this application, the known PARS inhibitor 1,5-dihydroxyisoquinoline (DHCH) is tested as reference substance. The results of the test are stated as IC50 values for the inhibition of PARS.
As for `O=c1[nH]c(=O)n(CCc2ccc(CNCCO)cc2)c2c1CSCC2` [Example 6, 1-[2-(4-{[(2-Hydroxyethyl)amino]methyl}phenyl)ethyl]-1,5,7,8-tetrahydro-2H-thiopyrano-[4,3-d]pyrimidine-2,4(3H)-dione], the IC50 was found to be 50 nM.

Take `O=c1[nH]c(=O)n(CCc2ccc([N+](=O)[O-])cc2)c2c1CSCC2` [Example 40]: the IC50 is 20 nM.

Consider `Oc1cccc2c(O)nccc12` [DHCH, 1,5-dihydroxyisoquinoline, reference compound], for which the IC50 was determined as 300 nM.

For the molecule `O=c1[nH]c(=O)n(CCc2ccc(Br)cc2)c2c1CSCC2` [Example 1, 1-[2-(4-Bromophenyl)ethyl]-1,5,7,8-tetrahydro-2H-thiopyrano[4,3-d]pyrimidine-2,4(3H)-dione], the IC50 worked out at 60 nM.

With `Cc1cn(CCCn2c3c(c(=O)[nH]c2=O)CSCC3)cn1` [Example 8, 1-[3-(4-Methyl-1H-imidazol-1-yl)propyl]-1,5,7,8-tetrahydro-2H-thiopyrano[4,3-d]pyrimidine-2,4(3H)-dione], the IC50 is 85 nM.

Take `O=c1[nH]c(=O)n(Cc2cccnc2)c2c1CSCC2` [Example 56]: the IC50 turned out to be 75 nM.

For the molecule `CC(C)N1CCN(C(=O)c2ccc(CCn3c4c(c(=O)[nH]c3=O)CSCC4)cc2)CC1` [Example 62], the IC50 was found to be 800 nM.

For the molecule `Cc1[nH]ncc1CCCn1c2c(c(=O)[nH]c1=O)CSCC2` [Example 53], the IC50 stood at 80 nM.

Another assay concerns MHEC5-T cells. The experiment in a line: Cell protection assay (in vitro), H2O2-induced cell death. The format is cell-based. The conditions noted are these: MHEC5-T endothelial cells, 3 mM H2O2, 5 hours, Alamar blue; 10 μM DHCH defined as 100% protection; read-out: Cell protection (in vitro) EC50. As to the method:
In accordance with a method described by Bowes [Bowes et al., Br. J. Pharmacol., 124, 1760-1766 (1998)], the ability of PARS inhibitors to protect cells against cell death induced by incubation with H2O2 is examined in a cell protection assay. Incubation of endothelial cells with H2O2 results in the generation of DNA strand breaks which in turn activate PARS, resulting in a drastic energy decrease in the cells and in cell death. Living cells are quantified by a fluorimetric redox indicator (Alamar blue), which is converted in the electron transport system of the mitochondria.
Specifically, 7500 MHEC5-T cells/well (DSM ACC 336; German collection of microorganisms and cell cultures) are sown in 4 replications on a 96-well plate. After 24 hours, the cells are incubated with 3 mM aqueous H2O2 solution and differing concentrations of the substances in the presence of 6% by volume of Alamar blue solution in the medium at 37° C. for 5 hours. The reference substance used is 10 μM 1,5-dihydroxyisoquinoline (DHCH) solution. After the incubation, the fluorescence is measured at an excitation wavelength of 530-560 nm and an emission wavelength of 590 nm. The percentage for the cell protection is calculated as the difference between the living cells treated only with H2O2 and the cells treated with H2O2 and PARS inhibitors. The internal standard used is 10 μM DHCH, which is defined as 100% protection. The results obtained for the other substances are compared to this value.
The EC50 values indicate the concentration at which 50% of maximum cell protection is reached, maximum protection by 10 μM DHCH being defined as 100%. DHCH has an EC50 value of 2 μM.
As for `O=c1[nH]c(=O)n(CCc2cccnc2)c2c1CSCC2` [Example 66], the EC50 is 650 nM.

Regarding `O=c1[nH]c(=O)n(CCCn2cnc([N+](=O)[O-])c2)c2c1CSCC2` [Example 65], the EC50 amounted to 90 nM.

With `O=c1[nH]c(=O)n(CCCn2ccnc2)c2c1CSCC2` [Example 76], the EC50 was 500 nM.

In the case of `O=Cc1ccc(CCn2c3c(c(=O)[nH]c2=O)CSCC3)cc1` [Example 5], the EC50 is 150 nM.

In the case of `O=c1[nH]c(=O)n(CCc2ccc(CN3CCCCC3)cc2)c2c1CSCC2` [Example 61], the EC50 came out at 100 nM.

Still in this assay, the particulars now being: MHEC5-T endothelial cells, 3 mM H2O2; maximum protection by 10 μM DHCH defined as 100%; read-out: EC50 value cell protection.
In the case of `Oc1cccc2c(O)nccc12` [DHCH, 1,5-dihydroxyisoquinoline, reference compound], the EC50 was 2000 nM.
